Assay results published in paper PMC9763054 (Nature, 2021).

Target: human CB1 (Homo sapiens, UniProt P21554)
Assay type: cell-based

Sequence of human CB1 (P21554 whole entry): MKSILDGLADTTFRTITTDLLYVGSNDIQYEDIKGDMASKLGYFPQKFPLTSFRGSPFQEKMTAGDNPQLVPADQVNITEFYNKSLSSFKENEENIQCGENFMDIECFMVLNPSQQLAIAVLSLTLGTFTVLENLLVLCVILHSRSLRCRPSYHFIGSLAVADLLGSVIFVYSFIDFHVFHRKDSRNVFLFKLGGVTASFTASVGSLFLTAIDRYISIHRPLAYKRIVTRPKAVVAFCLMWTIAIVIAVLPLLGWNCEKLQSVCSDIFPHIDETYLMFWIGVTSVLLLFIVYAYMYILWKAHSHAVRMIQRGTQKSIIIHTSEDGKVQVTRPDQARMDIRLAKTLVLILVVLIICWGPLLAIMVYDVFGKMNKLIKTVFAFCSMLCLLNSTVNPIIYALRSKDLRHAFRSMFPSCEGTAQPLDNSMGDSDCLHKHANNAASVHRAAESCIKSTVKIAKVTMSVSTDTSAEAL

## CCCCCCC(C)(C)c1ccc([C@@H]2C[C@H](O)CC[C@H]2CCCO)c(O)c1 [CP55940]
  CB1 potency measured in agonist mode: 17 nM
